Starred links: 1 amine or outer side, 2 acyl side, 3 side chain; linkers in the order of their positions; H or OH if unused. Residues, ends and D or L forms follow the SMILES beside them. *: point of attachment. pNA = O=[N+]([O-])c1ccc(N*)cc1; Suc = O=C(CCC(=O)[*:2])[*:1]
Assays:
[1] = biological target: T1, Par17 (Homo sapiens, UniProt Q9Y237); assay: Protease-coupled isomerase assay (PPIase assay) with Par17; format: biochemical; details: PBS pH 6.8, 10°C, PPIase 2 μM; for k = kobserved - kthermic, Par17: α-chymotrypsin 35 μM, substrate 75 μM, absorbance 390 nm, mean ± SD
T1 construct: full‐length Par17 and the N‐terminus of Par17; GST-His6 (PreScission site) (N, cleaved yes); Gly-Pro remnant of the PreScission site (Gly stands at position 1 in place of Met1); made in house; host or cells: E. coli BL21 (DE3) T1r
Protocol: (§1) To determine the catalytic efficiency and substrate specificity of Par14 and Par17, we performed a protease‐coupled assay. In this assay, the trans form of a para‐nitroaniline (pNA) tagged model substrate is cleaved by chymotrypsin, and the resulting change in absorption at 390 nm due to free pNA is measured. When the model substrate is added to the protease‐containing buffer, all trans‐Xaa‐Pro isomers are immediately cleaved by chymotrypsin. Therefore, the extent of the first signal burst observed in the absorption spectrum correlates with the amount of trans isomers of the model substrate formed during the experimental dead time. The remaining cis‐Xaa substrates now start to isomerize by thermal (in the absence of PPIase) or catalytic reaction (in the presence of PPIase). The newly formed trans‐Xaa substrates are immediately cleaved, and isomerization can thus be monitored over time (Figure 2). Eighteen different substrate peptides with varying amino acids at the Xaa position (Suc‐Ala‐Xaa‐Pro‐Phe‐pNa) were measured to determine the isomerase activity and substrate selectivity of Par14 (Par17Δ1–25), Par17, and the catalytic domain (Par17Δ1–60) (Table S1). The catalytic efficiency is obtained from the observed isomerization curves by calculating the difference between the rate constant in the presence of enzyme and the rate constant obtained from thermal isomerization.
(§2) We determined the isomerase activity using the PPIase assay described by. The lyophilized peptides were dissolved in an adequate volume of 0.5 mM‐LiCl/TFE buffer to obtain a 15 mM stock solution. To achieve a stable cis/trans ratio the mixture was incubated overnight at 4°C. The next day a stock solution of 350 μM α‐chymotrypsin in PBS was incubated on ice for at least 20 min. For measurements without PPIase PBS buffer (pH 6.8) was mixed with α‐chymotrypsin to a final concentration of 35 μM in 1 mL. A baseline was recorded for 5 min (Cary 100Bio UV/Vis spectrophotometer, Varian/Agilent, Santa Clara, US, λ: 390 nm, bandwidth: 1.0 nm, average time between measurements: 0.5 s, temperature: 10°C). After 5 min the substrate peptide was added to a final concentration of 75 μM in 1 mL [59]. The solution was mixed by inverting the cuvette three times and the reaction was recorded for 15 min. Measurements in the presence of PPIase were performed in the same way, except that before the baseline measurement, the appropriate isomerase was added in a final concentration of 2 μM in 1 mL in addition to PBS and α‐chymotrypsin.
(§3) For the data analysis, a mean value of the baseline was subtracted (average of the first 200 data points). The measured values were normalized according to the respective maximum of the measurement. To determine the rate constant, the program graph pad was used, and non‐linear curve fitting was applied for each measurement (exponential, one‐phase association). (1) Y=Y0+Plateau−Y0∙1−e^−K∙x
(§4) where x is the time (min), Y is the absorbance, Y 0 is the absorbance when x = 0, Plateau is the Y value at infinite times, K is the rate constant (min^−1).
(§5) The K cat/K M value was calculated according to Equation (2): (2) kcat/KM=kobs−ktherm/PPIase where k cat/K M is the catalytic efficiency (M^−1 s^−1), k obs, rate constant of the observed reaction (s^−1), k therm is the rate constant of the thermic reaction (s^−1), and [PPIase] is the concentration of PPIase used in the assay (M).
(§6) The obtained data are fitted to Equation (2) using a pseudo first‐order assumption. This is the case, if k obs values behave linearly with rising PPIase concentrations.

[2] = biological target: T2, Par14 (Par17Δ1-25) (Homo sapiens, UniProt Q9Y237); assay: Protease-coupled isomerase assay (PPIase assay) with Par14; format: biochemical; details: PBS pH 6.8, 10°C, PPIase 2 μM; for k = kobserved - kthermic, Par14 (Par17Δ1-25): α-chymotrypsin 35 μM, substrate 75 μM, absorbance 390 nm, mean ± SD
T2 construct: Comparison of spectra of full‐length parvulin proteins and PPIase domain; GST-His6 (PreScission site) (N, cleaved yes); made in house; host or cells: E. coli BL21 (DE3) T1r
Protocol: as §1, §2, §3, §4, §5, §6

[3] = biological target: T3, PPIase domain (Par17Δ1-60) (Homo sapiens, UniProt Q9Y237); assay: Protease-coupled isomerase assay (PPIase assay) with the catalytic domain; format: biochemical; details: PBS pH 6.8, 10°C, PPIase 2 μM; for k = kobserved - kthermic, PPIase domain (Par17Δ1-60): α-chymotrypsin 35 μM, substrate 75 μM, absorbance 390 nm, mean ± SD
T3 construct: GST-His6 (PreScission site) (N, cleaved yes); made in house; host or cells: E. coli BL21 (DE3) T1r
Protocol: as §1, §2, §3, §4, §5, §6

[4] = biological target: T1, Par17; assay: NMR titration of substrate peptides to 15N-labeled full-length Par17; format: binding; details: 300 μM Par17, KPi pH 6.7, 20°C
Protocol: The amide signals were assigned and combined chemical shift changes between the signals of free and substrate‐bound isomers were calculated.
For NMR measurements, purified and concentrated proteins in salt‐free buffers were mixed with 10% D2O and 1 μL DSS standard. Spectra were measured on an ultra shield 700‐NMR (Bruker, Billerica, US) with a triple resonance cryoprobe (700 MHz). For recording and processing of data, the software Topspin 3.5 was used. Analysis of spectra was carried out using Cara analysis software 2.3.1 (Rochus L.J. Keller) and/or CcpNmr Analysis 2.3.1 (Department of Molecular and Cell Biology, University of Leicester, UK).
Titration of substrate peptides to ^ 15 N‐labeled full‐length Par17 and the N‐terminus of Par17: The following substrate peptides were diluted in salt‐free 50 mM KPi buffer pH 6.7 to a concentration of 15 mM (Suc: Succinyl, pNA: para‐Nitroanilin):
They were added stepwise to 200 μL of the labeled parvulins (300 μM in 50 mM KPi buffer pH 6.7). Spectra were recorded with the pulse program Best‐TROSY at 20°C. Combined chemical shifts were calculated as described. Microscopic dissociation constant K D was fitted with the following equation (assuming a 1:1 binding model): (4) ∆δ=∆δmax·P+x+KD−P+x+KD^2−4·x·P/2·P
where ∆δmax is the amplitude, P is the protein concentration, X is the concentration of the peptide.
Differences in chemical shift changes could be measured up to 0.001 ppm (error in peak picking). Changes were interpreted as significant if Δ > 0.004 ppm and when appearing consecutively in a linear sequence element.
The microscopic K D describes the binding affinity of the ligand to a single side of an amino acid.

[5] = Table ST1, (kobs−ktherm)/[PPIase]

T2 sequence (Q9Y237 whole entry, stated change not applied, the tested form may be a part): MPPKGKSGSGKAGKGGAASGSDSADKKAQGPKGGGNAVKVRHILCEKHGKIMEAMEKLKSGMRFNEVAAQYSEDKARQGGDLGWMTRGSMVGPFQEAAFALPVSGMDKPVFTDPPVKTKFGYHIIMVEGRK
T3 sequence (Q9Y237 36-131, stated change not applied): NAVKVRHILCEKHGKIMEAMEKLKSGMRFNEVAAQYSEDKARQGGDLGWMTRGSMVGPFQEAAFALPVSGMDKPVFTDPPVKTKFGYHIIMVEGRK
T1 sequence (Q9Y237 1-156 isoform Q9Y237-2): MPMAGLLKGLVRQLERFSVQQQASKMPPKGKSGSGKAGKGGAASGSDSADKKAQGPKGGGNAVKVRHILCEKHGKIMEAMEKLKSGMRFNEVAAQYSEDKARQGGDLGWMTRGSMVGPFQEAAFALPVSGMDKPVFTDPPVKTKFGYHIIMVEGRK

Molecule | k = kobserved - kthermic, Par17 [1] [min⁻¹] | k = kobserved - kthermic, Par14 (Par17Δ1-25) [2] [min⁻¹] | k = kobserved - kthermic, PPIase domain (Par17Δ1-60) [3] [min⁻¹] | Combined chemical shift perturbation of full length Par17, 113G ([4]; peptide 0,35 mM) | Combined chemical shift perturbation of full length Par17, 116V ([4]; peptide 0,35 mM) | Combined chemical shift perturbation of full length Par17, 119F ([4]; peptide 0,35 mM) | Combined chemical shift perturbation of full length Par17, 113G ([4]; peptide 3 mM) | Combined chemical shift perturbation of full length Par17, 115M ([4]; peptide 3 mM) | Combined chemical shift perturbation of full length Par17, 116V ([4]; peptide 3 mM) | Combined chemical shift perturbation of full length Par17, 119F ([4]; peptide 3 mM) | Combined chemical shift perturbation of full length Par17, 113G ([4]; peptide 5 mM) | Combined chemical shift perturbation of full length Par17, 115M ([4]; peptide 5 mM) | Combined chemical shift perturbation of full length Par17, 116V ([4]; peptide 5 mM) | Combined chemical shift perturbation of full length Par17, 119F ([4]; peptide 5 mM) | Combined chemical shift perturbation of full length Par17, 113G ([4]; peptide 1,5 mM) | Combined chemical shift perturbation of full length Par17, 115M ([4]; peptide 1,5 mM) | Combined chemical shift perturbation of full length Par17, 116V ([4]; peptide 1,5 mM) | Combined chemical shift perturbation of full length Par17, 119F ([4]; peptide 1,5 mM) | also measured
C[C@H](NC(=O)CCC(=O)O)C(=O)NCC(=O)N1CCC[C@H]1C(=O)N[C@@H](Cc1ccccc1)C(=O)Nc1ccc([N+](=O)[O-])cc1 [Gly, Suc‐Ala‐Gly‐Pro‐Phe‐pNa] (Suc-AGPF-pNA) | <0.01 ± 0.029 | 0.390 ± 0.457 | 0.275 ± 0.214 | 0,014 ppm | 0,038 ppm | 0,012 ppm | 0,116 ppm | 0,06 ppm | 0,302 ppm | 0,084 ppm | 0,157 ppm | 0,081 ppm | 0,412 ppm | 0,113 ppm | 0,066 ppm | 0,035 ppm | 0,173 ppm | 0,05 ppm | –
CC(C)[C@H](NC(=O)[C@H](C)NC(=O)CCC(=O)O)C(=O)N1CCC[C@H]1C(=O)N[C@@H](Cc1ccccc1)C(=O)Nc1ccc([N+](=O)[O-])cc1 [Val, Suc‐Ala‐Val‐Pro‐Phe‐pNa] (Suc-AVPF-pNA) | 0.011 ± 0.005 | 0.408 ± 0.432 | 0.289 ± 0.166 | 0,024 ppm | 0,049 ppm | 0,022 ppm | 0,157 ppm | 0,084 ppm | 0,326 ppm | 0,125 ppm | 0,221 ppm | 0,11 ppm | 0,454 ppm | 0,167 ppm | 0,099 ppm | 0,055 ppm | 0,201 ppm | 0,08 ppm | Combined chemical shift perturbation of full length Par17, 115M ([4]; peptide 0,35 mM): 0,015 ppm
Suc-Ala-Ser-Pro-Phe-pNa [model substrate peptide, Xaa = Ser] | <0.01 ± 0.098 | 0.332 ± 0.054 | 0.327 ± 0.273 | – | – | – | – | – | – | – | – | – | – | – | – | – | – | – | kcat/KM, Par17 [1, 5]: <0.1 M^-1·s^-1 · 10^3; kcat/KM, Par14 (Par17Δ1-25) [2, 5]: 2.7 M^-1·s^-1 · 10^3; kcat/KM, PPIase domain (Par17Δ1-60) [3, 5]: 2.7 M^-1·s^-1 · 10^3
C[C@H](NC(=O)CCC(=O)O)C(=O)N[C@@H](CCC(=O)O)C(=O)N1CCC[C@H]1C(=O)N[C@@H](Cc1ccccc1)C(=O)Nc1ccc([N+](=O)[O-])cc1 [Glu, Suc–Ala–Glu–Pro–Phe–pNa] (Suc-AEPF-pNA) | <0.01 ± 0.029 | 0.267 ± 0.011 | 0.114 ± 0.074 | – | – | – | 0,17998 ppm | 0,13595 ppm | 0,27245 ppm | 0,18213 ppm | – | – | – | – | – | – | – | – | Combined chemical shift perturbation of full length Par17, 113G ([4]; peptide 0,2 mM): 0,02117 ppm; Combined chemical shift perturbation of full length Par17, 115M ([4]; peptide 0,2 mM): 0,01409 ppm; Combined chemical shift perturbation of full length Par17, 116V ([4]; peptide 0,2 mM): 0,03056 ppm; Combined chemical shift perturbation of full length Par17, 119F ([4]; peptide 0,2 mM): 0,02147 ppm; Combined chemical shift perturbation of full length Par17, 113G ([4]; peptide 1 mM): 0,08535 ppm; Combined chemical shift perturbation of full length Par17, 115M ([4]; peptide 1 mM): 0,06465 ppm; Combined chemical shift perturbation of full length Par17, 116V ([4]; peptide 1 mM): 0,12599 ppm; Combined chemical shift perturbation of full length Par17, 119F ([4]; peptide 1 mM): 0,0896 ppm; Combined chemical shift perturbation of full length Par17, 113G ([4]; peptide 2 mM): 0,14414 ppm; Combined chemical shift perturbation of full length Par17, 115M ([4]; peptide 2 mM): 0,10754 ppm; Combined chemical shift perturbation of full length Par17, 116V ([4]; peptide 2 mM): 0,21191 ppm; Combined chemical shift perturbation of full length Par17, 119F ([4]; peptide 2 mM): 0,14351 ppm; Combined chemical shift perturbation of full length Par17, 113G ([4]; peptide 4 mM): 0,21636 ppm; Combined chemical shift perturbation of full length Par17, 115M ([4]; peptide 4 mM): 0,16135 ppm; Combined chemical shift perturbation of full length Par17, 116V ([4]; peptide 4 mM): 0,32999 ppm; Combined chemical shift perturbation of full length Par17, 119F ([4]; peptide 4 mM): 0,22445 ppm
